Data: article PMC3245313, “Helicobacter pylori versus the Host: Remodeling of the Bacterial Outer Membrane Is Required for Survival in the Gastric Mucosa” (PLoS Pathogens, 2011)
Like-named read-outs stand apart in the source and are kept apart here. Where a SMILES comes first, the peptide text is derived from it. Bridges are numbered along the chain shown (N, C = ends). Where no end group is shown, it is not given here.

Key:
H. pylori J99 Wild Type [1] = tested on: H. pylori J99 Wild Type
H. pylori J99 lpxE [2] = tested on: H. pylori J99 lpxE
H. pylori J99 lpxF [3] = tested on: H. pylori J99 lpxF
H. pylori J99 lpxE/F [4] = tested on: H. pylori J99 lpxE/F
H. pylori J99 lpxR [5] = tested on: H. pylori J99 lpxR
H. pylori J99 Wild Type [6] = format: cell-based, Helicobacter pylori; conditions: Polymyxin B E-Test strips on TSA with 5% blood, average of three experiments
H. pylori J99 lpxF [7] = format: cell-based, Helicobacter pylori
[8] = tested on: H. pylori J99 lpxF, lpxF+; format: cell-based, Helicobacter pylori; conditions: Polymyxin B E-Test strips on TSA with 5% blood, average of three experiments
H. pylori J99 lpxE [9] = format: cell-based, Helicobacter pylori
H. pylori J99 lpxE/F [10] = format: cell-based, Helicobacter pylori
H. pylori J99 lpxR [11] = format: cell-based, Helicobacter pylori; conditions: Polymyxin B E-Test strips on TSA with 5% blood, average of three experiments
H. pylori B128 Wild Type = format: cell-based, Helicobacter pylori; conditions: Polymyxin B E-Test strips on TSA with 5% blood, average of three experiments
H. pylori B128 lpxF = format: cell-based, Helicobacter pylori; conditions: Polymyxin B E-Test strips on TSA with 5% blood, average of three experiments
H. pylori B128 lpxE = format: cell-based, Helicobacter pylori; conditions: Polymyxin B E-Test strips on TSA with 5% blood, average of three experiments
[12] = tested on: H. pylori B128 lpxE, lpxE+; format: cell-based, Helicobacter pylori; conditions: Polymyxin B E-Test strips on TSA with 5% blood, average of three experiments
H. pylori B128 lpxE/F = format: cell-based, Helicobacter pylori; conditions: Polymyxin B E-Test strips on TSA with 5% blood, average of three experiments
H. pylori X47 Wild Type = format: cell-based, Helicobacter pylori; conditions: Polymyxin B E-Test strips on TSA with 5% blood, average of three experiments
H. pylori X47 lpxF = format: cell-based, Helicobacter pylori; conditions: Polymyxin B E-Test strips on TSA with 5% blood, average of three experiments
[13] = tested on: H. pylori X47 lpxF, lpxF+; format: cell-based, Helicobacter pylori; conditions: Polymyxin B E-Test strips on TSA with 5% blood, average of three experiments
H. pylori X47 lpxE = format: cell-based, Helicobacter pylori; conditions: Polymyxin B E-Test strips on TSA with 5% blood, average of three experiments
H. pylori X47 lpxE/F = format: cell-based, Helicobacter pylori; conditions: Polymyxin B E-Test strips on TSA with 5% blood, average of three experiments
[14] = tested on: H. pylori wild type strains; conditions: cited from earlier work
Method: Resistance to CAMPs is of great importance to all mucosal pathogens. This is especially true for H. pylori whose only known reservoir is the human gastric mucosal surface. H. pylori is highly resistant to the CAMP polymyxin B (PMB) with the minimal inhibitory concentration (MIC) of wild type strains ranging from 250–1000 µg/ml peptide. […] MICs were determined for all strains using PMB Etest strips. H. pylori wild type strain J9 ...

With “GIGDPVTCLKSGAICHPVFCPRRYKQIGTCGLPGTKCCKKP (disulfide 8-37, 15-30, 20-38 (inferred)) [HBD2]” the “Minimal Inhibitory Concentration (MIC)” value (H. pylori J99 Wild Type [1]; J99 Wild Type, 48 h) was >25 µg/mL, the “Minimal Inhibitory Concentration (MIC)” value (H. pylori J99 lpxE [2]; J99 lpxE, 48 h) was 23 ± 3 µg/mL and the “Minimal Inhibitory Concentration (MIC)” value (H. pylori J99 lpxF [3]; J99 lpxF, 48 h) was 12 ± 1 µg/mL. The “Minimal Inhibitory Concentration (MIC)” value (H. pylori J99 lpxE/F [4]; J99 lpxE/F, 48 h) was 5.0 ± 1.0 µg/mL and the “Minimal Inhibitory Concentration (MIC)” value (H. pylori J99 lpxR [5]; J99 lpxR, 48 h) was >25 µg/mL.
With AKKVFKRLEKLFSKIQNDK [HP2.20] the “Minimal Inhibitory Concentration (MIC)” value (H. pylori J99 Wild Type [1]; J99 Wild Type, 48 h) was >1250 µg/mL, the “Minimal Inhibitory Concentration (MIC)” value (H. pylori J99 lpxE [2]; J99 lpxE, 48 h) was 583 ± 29 µg/mL and the “Minimal Inhibitory Concentration (MIC)” value (H. pylori J99 lpxF [3]; J99 lpxF, 48 h) was 60 ± 0 µg/mL. The “fold decrease in resistance” value (H. pylori J99 lpxE/F [4]; J99 double lpxE/F mutant versus wild type, broth dilution MICs) was ≥ 60 fold, the “Minimal Inhibitory Concentration (MIC)” value (H. pylori J99 lpxE/F [4]; J99 lpxE/F, 48 h) was 18 ± 3 µg/mL and the “Minimal Inhibitory Concentration (MIC)” value (H. pylori J99 lpxR [5]; J99 lpxR, 48 h) was >1250 µg/mL.
For “AKRHHGYKRKFH-NH2 (C-terminus assumed) [P113]”, the “Minimal Inhibitory Concentration (MIC)” value (H. pylori J99 Wild Type [1]; J99 Wild Type, 48 h) was >400 µg/mL, the “Minimal Inhibitory Concentration (MIC)” value (H. pylori J99 lpxE [2]; J99 lpxE, 48 h) was 341 ± 14 µg/mL and the “Minimal Inhibitory Concentration (MIC)” value (H. pylori J99 lpxF [3]; J99 lpxF, 48 h) was 178 ± 3 µg/mL. The “Minimal Inhibitory Concentration (MIC)” value (H. pylori J99 lpxE/F [4]; J99 lpxE/F, 48 h) was 141 ± 14 µg/mL and the “Minimal Inhibitory Concentration (MIC)” value (H. pylori J99 lpxR [5]; J99 lpxR, 48 h) was >400 µg/mL.
With `CC[C@H](C)[C@H](NC(=O)[C@H](CCCCN)NC(=O)[C@H](CCC(=O)O)NC(=O)[C@H](CCCCN)NC(=O)[C@H](CO)NC(=O)[C@H](CCCCN)NC(=O)[C@H](CCCNC(=N)N)NC(=O)[C@H](Cc1ccccc1)NC(=O)[C@H](Cc1ccccc1)NC(=O)[C@H](CC(=O)O)NC(=O)CNC(=O)[C@H](CC(C)C)NC(=O)[C@@H](N)CC(C)C)C(=O)NCC(=O)N[C@@H](CCCCN)C(=O)N[C@@H](CCC(=O)O)C(=O)N[C@@H](Cc1ccccc1)C(=O)N[C@@H](CCCCN)C(=O)N[C@@H](CCCNC(=N)N)C(=O)N[C@H](C(=O)N[C@H](C(=O)N[C@@H](CCC(N)=O)C(=O)N[C@@H](CCCNC(=N)N)C(=O)N[C@H](C(=O)N[C@@H](CCCCN)C(=O)N[C@@H](CC(=O)O)C(=O)N[C@@H](Cc1ccccc1)C(=O)N[C@@H](CC(C)C)C(=O)N[C@@H](CCCNC(=N)N)C(=O)N[C@@H](CC(N)=O)C(=O)N[C@@H](CC(C)C)C(=O)N[C@H](C(=O)N1CCC[C@H]1C(=O)N[C@@H](CCCNC(=N)N)C(=O)N[C@H](C(=O)N[C@@H](CCC(=O)O)C(=O)N[C@@H](CO)C(=O)O)[C@@H](C)O)C(C)C)[C@@H](C)CC)C(C)C)[C@@H](C)CC` [LL37] the “Minimal Inhibitory Concentration (MIC)” value (H. pylori J99 Wild Type [1]; J99 Wild Type, 48 h) was 40 ± 5 µg/mL, the “Minimal Inhibitory Concentration (MIC)” value (H. pylori J99 lpxE [2]; J99 lpxE, 48 h) was 40 ± 0 µg/mL and the “Minimal Inhibitory Concentration (MIC)” value (H. pylori J99 lpxF [3]; J99 lpxF, 48 h) was 19 ± 2 µg/mL. For the same compound, the “Minimal Inhibitory Concentration (MIC)” value (H. pylori J99 lpxE/F [4]; J99 lpxE/F, 48 h) was 11 ± 1 µg/mL and the “Minimal Inhibitory Concentration (MIC)” value (H. pylori J99 lpxR [5]; J99 lpxR, 48 h) was 41 ± 6 µg/mL.
With `CC[C@H](C)[C@@H]1NC(=O)[C@@H]2CSSC[C@@H]3NC(=O)[C@H](Cc4ccccc4)NC(=O)[C@H](C)NC(=O)[C@H](Cc4c[nH]c5ccccc45)NC(=O)[C@H](CC(C)C)NC(=O)[C@H](CCCNC(=N)N)NC(=O)CNC(=O)[C@H](CCC(N)=O)NC(=O)[C@H](Cc4ccc(O)cc4)NC(=O)[C@H]([C@@H](C)CC)NC(=O)[C@H](CSSC[C@H](NC(=O)[C@H](Cc4ccc(O)cc4)NC(=O)[C@@H](N)CSSC[C@@H](C(=O)O)NC3=O)C(=O)N[C@@H](CCCNC(=N)N)C(=O)N[C@@H]([C@@H](C)CC)C(=O)N3CCC[C@H]3C(=O)N[C@@H](C)C(=O)N2)NC(=O)[C@H]([C@@H](C)O)NC(=O)CNC(=O)[C@H](Cc2ccc(O)cc2)NC(=O)[C@H](CCCNC(=N)N)NC(=O)[C@H](CCCNC(=N)N)NC(=O)[C@H](CCC(=O)O)NC(=O)CNC(=O)[C@H](C)NC1=O` [HNP2] (H-CYCRIPACIAGERRYGTCIYQGRLWAFCC-OH; disulfide 1-29, 3-18, 8-28 (inferred); N-terminus and C-terminus assumed) the “Minimal Inhibitory Concentration (MIC)” value (H. pylori J99 Wild Type [1]; J99 Wild Type, 48 h) was >25 µg/mL, the “Minimal Inhibitory Concentration (MIC)” value (H. pylori J99 lpxE [2]; J99 lpxE, 48 h) was >25 µg/mL and the “Minimal Inhibitory Concentration (MIC)” value (H. pylori J99 lpxF [3]; J99 lpxF, 48 h) was >25 µg/mL. The “Minimal Inhibitory Concentration (MIC)” value (H. pylori J99 lpxE/F [4]; J99 lpxE/F, 48 h) was >25 µg/mL and the “Minimal Inhibitory Concentration (MIC)” value (H. pylori J99 lpxR [5]; J99 lpxR, 48 h) was >25 µg/mL.
With polymyxin B the “Polymyxin MIC” value (H. pylori J99 Wild Type [6]) was 469.3 ± 73.9 µg/mL, the “fold decrease in resistance (increase in sensitivity) to PMB” value (H. pylori J99 lpxF [7]; J99 lpxF mutant versus wild type J99, Etest MICs) was 360 fold and the “Polymyxin MIC” value (H. pylori J99 lpxF [7]; J99 lpxF, Polymyxin B E-Test strips on TSA with 5% blood, average of three experiments) was 1.3 ± 0.3 µg/mL. For the same compound, the “Polymyxin MIC” value [8] was 512.0 ± 0.0 µg/mL, the “fold decrease in resistance (increase in sensitivity) to PMB” value (H. pylori J99 lpxE [9]; J99 lpxE mutant versus wild type J99, Etest MICs) was 16 fold and the “Polymyxin MIC” value (H. pylori J99 lpxE [9]; J99 lpxE, Polymyxin B E-Test strips on TSA with 5% blood, average of three experiments) was 29.3 ± 4.6 µg/mL. For the same compound, the “fold decrease in resistance (increase in sensitivity) to PMB” value (H. pylori J99 lpxE/F [10]; J99 double lpxE/F mutant versus wild type J99, Etest MICs) was 1020 fold, the “Polymyxin MIC” value (H. pylori J99 lpxE/F [10]; J99 lpxE/F, Polymyxin B E-Test strips on TSA with 5% blood, average of three experiments) was 0.46 ± 0.03 µg/mL and the “Polymyxin MIC” value (H. pylori J99 lpxR [11]) was 512.0 ± 0.0 µg/mL. The “Polymyxin MIC” value (H. pylori J99 lpxR [11]; listed as PMB) was 512 ± 0.0 µg/mL, the “Polymyxin MIC” value (H. pylori B128 Wild Type) was 213.3 ± 37.0 µg/mL and the “Polymyxin MIC” value (H. pylori B128 lpxF) was 1.8 ± 0.3 µg/mL. The “Polymyxin MIC” value (H. pylori B128 lpxE) was 26.7 ± 4.6 µg/mL, the “Polymyxin MIC” value [12] was 234.7 ± 37.0 µg/mL and the “Polymyxin MIC” value (H. pylori B128 lpxE/F) was 0.61 ± 0.04 µg/mL. For the same compound, the “Polymyxin MIC” value (H. pylori X47 Wild Type) was 768.0 ± 0.0 µg/mL, the “Polymyxin MIC” value (H. pylori X47 lpxF) was 2.3 ± 0.6 µg/mL and the “Polymyxin MIC” value [13] was 682.7 ± 147.8 µg/mL. The “Polymyxin MIC” value (H. pylori X47 lpxE) was 37.3 ± 9.2 µg/mL, the “Polymyxin MIC” value (H. pylori X47 lpxE/F) was 0.55 ± 0.08 µg/mL and the “Minimal Inhibitory Concentration (MIC)” value (H. pylori J99 Wild Type [1]) was >250 µg/mL. For the same compound, the “Minimal Inhibitory Concentration (MIC)” value (H. pylori J99 lpxE [2]) was 22 ± 2 µg/mL, the “Minimal Inhibitory Concentration (MIC)” value (H. pylori J99 lpxF [3]) was 3.8 ± 0.3 µg/mL and the “Minimal Inhibitory Concentration (MIC)” value (H. pylori J99 lpxE/F [4]) was 0.6 ± 0.1 µg/mL. The “Minimal Inhibitory Concentration (MIC)” value (H. pylori J99 lpxR [5]) was >250 µg/mL and the “Minimal Inhibitory Concentration (MIC)” value [14] was 250 to 1000 µg/mL.
